Source: patent US12643867B2, “Compositions and uses thereof” (University of Virginia Patent Foundation, priority 2017, dated 2026)

Target: T1, LATS1 (Serine/threonine-protein kinase LATS1) (Homo sapiens, UniProt O95835)
T1 construct: Native kinases; endogenous in cells; host or cells: HEK293T soluble proteome
T1 sequence (O95835 1-1130): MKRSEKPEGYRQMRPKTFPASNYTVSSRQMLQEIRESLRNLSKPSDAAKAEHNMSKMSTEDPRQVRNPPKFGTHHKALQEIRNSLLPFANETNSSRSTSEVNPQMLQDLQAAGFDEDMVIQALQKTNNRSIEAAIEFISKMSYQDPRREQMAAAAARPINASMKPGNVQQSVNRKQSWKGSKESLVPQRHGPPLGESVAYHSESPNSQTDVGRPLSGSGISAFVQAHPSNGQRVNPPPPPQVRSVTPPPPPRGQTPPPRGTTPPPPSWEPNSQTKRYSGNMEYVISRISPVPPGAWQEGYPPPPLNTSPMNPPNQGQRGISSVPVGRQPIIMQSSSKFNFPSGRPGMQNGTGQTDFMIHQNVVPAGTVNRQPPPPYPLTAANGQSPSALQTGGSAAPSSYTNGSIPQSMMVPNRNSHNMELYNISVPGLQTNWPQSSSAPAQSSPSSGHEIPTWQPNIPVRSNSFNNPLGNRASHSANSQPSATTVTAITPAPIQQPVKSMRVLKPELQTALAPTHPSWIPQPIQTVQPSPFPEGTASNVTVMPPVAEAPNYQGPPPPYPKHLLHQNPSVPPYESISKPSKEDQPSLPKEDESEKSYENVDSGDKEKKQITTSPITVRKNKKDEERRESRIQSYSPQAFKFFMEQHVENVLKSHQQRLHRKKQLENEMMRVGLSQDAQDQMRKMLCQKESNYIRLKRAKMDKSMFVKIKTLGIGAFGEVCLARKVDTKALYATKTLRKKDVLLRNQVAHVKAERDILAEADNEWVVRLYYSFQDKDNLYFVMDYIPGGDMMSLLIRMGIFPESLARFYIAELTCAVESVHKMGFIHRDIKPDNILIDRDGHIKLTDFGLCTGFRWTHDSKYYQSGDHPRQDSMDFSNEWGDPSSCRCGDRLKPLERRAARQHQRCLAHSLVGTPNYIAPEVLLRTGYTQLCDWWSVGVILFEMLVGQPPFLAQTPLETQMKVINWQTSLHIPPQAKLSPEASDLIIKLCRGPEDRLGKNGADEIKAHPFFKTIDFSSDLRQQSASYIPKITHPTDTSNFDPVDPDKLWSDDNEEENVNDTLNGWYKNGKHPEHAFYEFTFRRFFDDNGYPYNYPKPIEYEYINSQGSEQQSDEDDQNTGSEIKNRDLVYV
Assay: SILAC LC-MS ATP acyl phosphate probe competition, native kinases in HEK293T
Format: binding
Details: site Lys1; ATP 1 mM; Ketanserin, Ritanserin 100 μM; RF001 1 mM
Protocol: Proteomes were diluted to 2 mg/ml in kinase buffer. The light and heavy proteomes (0.5 mg, 250 μL total reaction volume) were pre-treated with vehicle or compound, respectively (5 μL, DMSO (light) or 50× stock in DMSO (heavy)), mixed gently, and incubated at 25° C. for 30 min. […] After incubation, matched light and heavy proteomes were transferred and mixed in a 1:1 ratio in a two-dram vial containing 4:1:3 MeOH/CHCl3/H2O (2 mL MeOH, 500 AL CHCl3, 1.5 mL H2O) for extraction of proteins to remove excess probe, quickly vortexed, and centrifuged at 1,400×g for 3 min to pellet protein. Organic and aqueous layers were removed using a Pasteur pipette, and the protein pellet was transferred to a screw-top tube in 600 μL MeOH. A second extraction was performed by adding CHCl3 (150 μL) and H2O (600 μL) to each sample, vortexed, and centrifuged at 1,400×g for 3 min to pellet protein. Organic and aqueous layers were removed by pipetting. MeOH added to pellet (600 μL) and pellets were re-suspended by sonication (3×1 sec pulse, 20% amplitude) for a final extraction. Samples were then centrifuged at 17,000×g for 5 min to pellet protein and MeOH was removed by pipetting. The pellets were re-suspended in 10 M urea/25 mM ammonium bicarbonate ([…]), brought to a final volume of 1 mL with 25 mM ammonium bicarbonate, reduced with 10 mM DTT for 15 min at 65° C. allowed to cool, and then alkylated with 40 mM iodoacetamide for 30 min at 25° C. in the dark. To desalt the samples, each was transferred to a two-dram glass vial, and to the vial 4:1:2 MeOH/CHCl3/H2O (2 mL MeOH, 500 AL CHCl3, 1 mL H2O) was added. The vials were vortexed quickly, spun at 1.400×g for 3 min to pellet protein, and aqueous and organic layers were removed using a Pasteur pipette. The resulting protein pellet was transferred to a screw-top tube in 600 μL MeOH, and then CHCl3 (150 μL) and HO (600 μL) were added to extract protein a second time. The samples were vortexed quickly, centrifuged at 1,400×g to pellet protein, and the aqueous and organic layers were removed by pipetting. Resulting protein pellet was suspended in MeOH (600 μL) via sonication (3×1 sec pulse, 20% amplitude), centrifuged at 17,000×g for 5 min to pellet protein, and MeOH removed by pipetting. Protein pellets were then re-suspended in 25 mM ammonium bicarbonate (500 μL) and digested with 7.5 μg Trypsin/Lys-C(Promega, 15 μL, 0.5 μg/μL) for 3 h at 37° C. Avidin-agarose beads (Thermo Scientific Pierce, 100 AL aliquot per sample) were washed three times by adding 10 mL DPBS, centrifuged at 1,400×g for 1 min, and decanting. This wash step was repeated for a total of 3 times. Digested protein samples were mixed with washed avidin beads (100 μL) and brought to a volume of 5.5 mL with DPBS in a 15 mL conical and rotated for 1 h to enrich samples for the covalent desthiobiotin modification. The beads were washed with 25 mM ammonium bicarbonate (3× with 10 mL, centrifuge at 1,400×g for 3 min, decant) and then H2O (3× with 10 mL, centrifuge at 1,400×g for 3 min, decant). Washed beads were then transferred to a low-bind microfuge tube, centrifuged at 1,400×g for 3 min, allowed to rest for 1 min to settle beads, and then excess H2O was removed carefully using a gel-loading pipette tip. To elute peptides, 100 μL of elution buffer (50% acetonitrile, ACN; 0.1% formic acid) was added to each sample and incubated for 3 min. Beads were spun down at 1.400×g for 3 min, allowed to rest for 1 min to settle beads, and then 75 μL of peptide-containing supernatant was removed carefully using a gel-loading pipette tip and transferred to a new low bind centrifuge tube. This step was repeated two more times with 75 μL of elution buffer and all eluent were collected into the same centrifuge tube (˜225 μL total). Peptides were dried on a speed vacuum, resulting peptide samples acidified in 5% (v/v) formic acid, and stored at −80° C. until analysis.
The peptide samples were analyzed by liquid chromatography-mass spectrometry. […]

Compared with `O=C(c1ccc(F)cc1)C1CCN(CCn2c(=O)[nH]c3ccccc3c2=O)CC1` [Ketanserin], `Cc1nc2sccn2c(=O)c1CCN1CCC(=C(c2ccc(F)cc2)c2ccc(F)cc2)CC1` [Ritanserin] is higher in “SILAC ratio, LATS1 probe-modified peptide” value: 1.2 for the first, 1.8 for the second.

For `Fc1ccc(C(=C2CCNCC2)c2ccc(F)cc2)cc1` [RF001, 4-(Bis(4-fluorophenyl)methylene) piperidine], the “SILAC ratio, LATS1 probe-modified peptide” value was 1.4.
